Experiment [1] concerns ataxia telangiectasia mutated (ATM) kinase. As to conditions: low dose 5 μM; cited from earlier work.
Experiment [2] has as its target T1, TyrRS (Homo sapiens, UniProt P54577).
T1 construct: host or cells: HeLa cells
As to conditions: low dose ≤5 μM, HeLa cells; cited from earlier work.

Experiment [3] relates to TyrRS. The experiment can be described thus: Immunoblot for TyrRS after treatment with Aβ42. It is filed as cell-based, rat. As to conditions: different doses of Aβ42, 24 hours. As for the experimental part: (§1) Representative immunostaining images (scale bar, 20 μm) for neuronal TyrRS (spectral images) after treatment with neurotoxic agents result in TyrRS downregulation. […] The protein level of TyrRS was quantified by measuring the average intensity of fluorescence staining with regions defined by MAP2 (neurite marker) staining across n=3 experiments using n≥20 neurons for quantification per treatment condition. […] Rat cortical neurons (DIV 9) were treated with different doses of Aβ42 for 24 hours. All graphical representations depict mean±SEM from n=3 experiments with statistical significance calculated using paired Student's t-test.
(§2) Cultured neurons (DIV 9-10) were washed once with cold 1×PBS and lysed in cell lysis buffer (20 mM Tris-HCl (pH 7.5), 150 mM NaCl, 1 mM Na2EDTA, 1 mM EGTA, 1% Triton, 2.5 mM sodium pyrophosphate, 1 mM beta-glycerophosphate, 1 mM Na3VO4, 1 μg/ml leupeptin supplemented with protease inhibitor). The lysates were centrifuged at 10,000 RPM for 15 minutes at 4° C. to separate the chromatin-bound and soluble fractions. Lysates were quantified using Bio-Rad Protein Assay, and an equal amount of protein was loaded onto a 4 to 12% gradient gel (NuPAGE-Invitrogen). […] Quantification for the western blots was done using ImageJ (Version 1.53c).
A general note: Immunoblotting shows a protein as a band on a membrane.

A further experiment deals with pSer10-H3. The experiment can be described thus: Immunostaining of pSer10-H3 (ADP-ribosylation dependent DNA repair marker). It counts as cell-based, rat. The settings on record: Aβ 50 nM, 24 hours. The source says: Ac-K56-H3 is a marker of genomic stability, see Driscoll, R., Hudson, A. & Jackson, S. P. Yeast Rtt109 promotes genome stability by acetylating histone H3 on lysine 56. Science 315, 649-652, doi:10.1126/science.1135862 (2007), and DNA damage, see Tjeertes, J. V., Miller, K. M. & Jackson, S. P. Screen for DNA-damage-responsive histone modifications identifies H3K9Ac and H3K56Ac in human cells. EMBO J 28, 1878-1889, doi:10.1038/emboj.2009.119 (2009), and inhibition of PARP1 causes the downregulation of RAD51, see Hegan, D. C. et al. Inhibition of poly(ADP-ribose) polymerase down-regulates BRCA1 and RAD51 in a pathway mediated by E2F4 and p130. Proc Natl Acad Sci U S A 107, 2201-2206, doi:10.1073/pnas.0904783107 (2010), and induces neurotoxicity, see Diaz-Hernandez, J. I., Moncada, S., Bolanos, J. P. & Almeida, A. Poly(ADP-ribose) polymerase-1 protects neurons against apoptosis induced by oxidative stress. Cell Death Differ 14, 1211-1221, doi:10.1038/sj.cdd.4402117 (2007) and Midorikawa, R., Takei, Y. & Hirokawa, N. KIF4 motor regulates activity-dependent neuronal survival by suppressing PARP-1 enzymatic activity. Cell 125, 371-383, doi:10.1016/j.cell.2006.02.039 (2006). […] The western blot images of the protein levels of HPF1 was quantified using ImageJ.
Coverslips were then mounted using DAPI (4′,6-diamidino-2-phenylindole)-supplemented mounting medium, Prolong Gold Antifade (Invitrogen) imaged with Leica DMI6000 epifluorescent microscope at 63×magnification.

The subject of experiment [4] is phenyl-tRNA synthetase beta (PheRSβ). The experiment can be described thus: Immunoblot for PheRSβ after treatment with Aβ42. It counts as cell-based, rat. As to conditions: different doses of Aβ42, 24 hours. As for the experimental part: as §1, §2
The target of experiment [5] is T2, TyrRS (Rattus norvegicus, UniProt Q4KM49).
T2 construct: Primary cortical neuron cultures were obtained from E18 Sprague Dawley rats' cortices; endogenous in cells; host or cells: rat primary cortical neurons (E18 Sprague Dawley)
T2 sequence (Q4KM49 1-528): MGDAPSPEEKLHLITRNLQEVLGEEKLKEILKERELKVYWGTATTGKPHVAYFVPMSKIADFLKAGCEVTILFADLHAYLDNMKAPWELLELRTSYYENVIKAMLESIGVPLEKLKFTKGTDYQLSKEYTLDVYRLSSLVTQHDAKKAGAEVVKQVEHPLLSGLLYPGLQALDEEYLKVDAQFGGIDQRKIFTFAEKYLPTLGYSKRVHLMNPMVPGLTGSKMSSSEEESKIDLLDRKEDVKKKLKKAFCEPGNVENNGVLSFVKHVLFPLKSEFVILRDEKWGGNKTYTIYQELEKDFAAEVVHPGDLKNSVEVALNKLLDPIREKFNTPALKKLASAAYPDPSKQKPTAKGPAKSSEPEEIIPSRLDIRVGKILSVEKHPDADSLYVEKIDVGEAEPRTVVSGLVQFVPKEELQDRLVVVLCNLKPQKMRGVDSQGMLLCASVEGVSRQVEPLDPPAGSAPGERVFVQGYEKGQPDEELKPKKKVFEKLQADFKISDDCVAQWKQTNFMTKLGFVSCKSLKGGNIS
The experiment can be described thus: Immunostaining of neuronal TyrRS, RSV alone or in combination with Aβ. It is filed as cell-based. As to conditions: Aβ 50 nM alone, 16 hours.

Experiment [6] has as its system TyrRS. The experiment can be described thus: Immunostaining of neuronal TyrRS under neurotoxic agents (NMDA, MPP+). As to conditions: neurotoxic agent alone (50 μM NMDA, 100 μM MPP+), 4 hours. It is filed as cell-based, rat.

The values below come from patent publication US20240342111A1, “ISOMER-SPECIFIC NEUROPROTECTIVE EFFECT OF NATURAL RESERVATROL” (priority 2021, published 2024).

T1 sequence (P54577 whole entry): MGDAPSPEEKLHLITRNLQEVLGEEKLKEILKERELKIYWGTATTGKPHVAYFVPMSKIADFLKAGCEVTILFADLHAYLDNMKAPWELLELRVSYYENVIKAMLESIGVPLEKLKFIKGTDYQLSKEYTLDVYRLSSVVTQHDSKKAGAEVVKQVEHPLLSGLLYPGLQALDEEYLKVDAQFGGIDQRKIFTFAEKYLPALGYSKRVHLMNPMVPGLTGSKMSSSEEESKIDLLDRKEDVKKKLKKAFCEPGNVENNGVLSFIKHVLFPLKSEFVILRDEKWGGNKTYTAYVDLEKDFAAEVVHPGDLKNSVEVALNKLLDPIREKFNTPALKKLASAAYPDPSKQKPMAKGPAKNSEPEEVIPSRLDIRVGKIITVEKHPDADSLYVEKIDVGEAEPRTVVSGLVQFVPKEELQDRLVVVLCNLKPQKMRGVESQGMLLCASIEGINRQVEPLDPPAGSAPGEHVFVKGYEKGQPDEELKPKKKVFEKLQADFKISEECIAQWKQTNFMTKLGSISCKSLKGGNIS

Consider `Oc1ccc(C=Cc2cc(O)cc(O)c2)cc1` [RSV, Resveratrol], for which the ATM kinase activation entry in experiment [1] was “activate”. The “protein levels of TyrRS” value on TyrRS [2] is “upregulated the protein levels of TyrRS”.
Consider “human amyloid β protein fragment 1-42 [Aβ]”, for which the “TyrRS protein level (immunoblot)” value in the experiment with TyrRS [3] is “downregulates TyrRS in a dose-dependent manner”. The pSer10-H3 levels result with pSer10-H3 was “upregulation”. In addition, the “PheRSβ protein level (immunoblot)” value in experiment [4] was “did not downregulate”. For the same compound, the TyrRS protein levels entry with TyrRS [5] is “downregulation”.
Take `CN[C@H](CC(=O)O)C(=O)O` [NMDA, N-Methyl-D-aspartate]: in the experiment on TyrRS [6], the “neuronal protein levels of TyrRS” value is “downregulate the neuronal protein levels of TyrRS”.
Same read-out and setting: under `C[n+]1ccc(-c2ccccc2)cc1` [MPP^+, 1-methyl-4-phenylpyridinium] stands “downregulate the neuronal protein levels of TyrRS”.
